Data reported in US20260232796A1, “COMBINATION THERAPIES WITH AN ANTI-FACTOR XI/FACTOR XIA ANTIBODY” (Anthos Therapeutics, Inc., priority 2022, published 2026).
Like-named read-outs stand apart in the source and are kept apart here.

Legend:
platelet aggregation [1] = assay: Impedance platelet aggregometry in whole blood spiked with ticagrelor +/- Antibody 1; assay type: cell-based, human; details: ticagrelor 3 μM
Procedure: In the second study, whole blood was spiked with vehicle, ticagrelor (3 μM), or ticagrelor (3 μM)+Antibody 1 (125, 250, and 500 nM). Platelet aggregation was measured with the same methodology following induction by ADP (6.4 μM) or thrombin receptor activating peptide-6 (TRAP-6, 32 μM).

platelet aggregation [2] = assay: Impedance platelet aggregometry in whole blood spiked with aspirin +/- Antibody 1; assay type: cell-based; details: Homo sapiens, aspirin 1 mg/mL
Procedure: Two studies were conducted concurrently. Blood specimens were obtained in EDTA and citrate tubes (6 healthy donors for each study). In the first study, whole blood was spiked with vehicle, aspirin (1 mg/mL), or aspirin (1 mg/mL)+Antibody 1 (125, 250, and 500 nM). Platelet aggregation was measured by impedance platelet aggregometry following induction with collagen (3.2 μg/mL) or arachidonic acid (0.5 mM) (Multiplate® analyzer, COLtest and ASPItest reagents; Roche Diagnostics International Ltd, Rotkreuz, Switzerland).

platelet aggregation [3] = assay: Whole blood platelet aggregation, multiplate impedance aggregometer (Example 1); assay type: cell-based, human; details: collagen 1 μg/mL, Antibody 1 250, 500 or 1000 nM, abciximab 50 nM, vs vehicle
Procedure: (§1) Whole blood was obtained in EDTA and citrate tubes (6 healthy donors). Specimens were spiked with vehicle, Antibody 1 (250, 500, or 1000 nM), or abciximab (50 nM). Platelet aggregation was recorded following induction using collagen (1 μg/mL) or TRAP-6 (8 μM) using a multiplate impedance aggregometer. The area under the curve (AUC) for platelet aggregation was determined in arbitrary aggregation*time (AU*min). Thrombin generation was also measured at the above Antibody 1 and abciximab concentrations in platelet-rich plasma using Thrombinoscope CAT (Calibrated Automated Thrombogram; Stago CH S.A. and tissue factor reagent (1 μM); fluorescence was measured by an automated plate reader fluorometer.

thrombin generation = assay: Thrombin generation in platelet-rich plasma, Calibrated Automated Thrombogram; assay type: biochemical, human; details: tissue factor reagent, abciximab 50 nM
Procedure: as §1

For CCCSc1nc(N[C@@H]2C[C@H]2c2ccc(F)c(F)c2)c2nnn([C@@H]3C[C@H](OCCO)[C@@H](O)[C@H]3O)c2n1 [ticagrelor], the inhibition at 3 µM (platelet aggregation [1]; Homo sapiens, Platelet, ADP 6.4 μM, p<0.05, read-out: inhibition of platelet aggregation induced with ADP) was 54% and the “inhibition of platelet aggregation induced with TRAP-6” value (platelet aggregation [1]; TRAP-6 32 μM, p<0.05) was 31%.

CC(=O)Oc1ccccc1C(=O)O [aspirin] showed an inhibition at 1000 µg/mL (platelet aggregation [2]; arachidonic acid 0.5 mM, p<0.05, read-out: inhibition of platelet aggregation induced with arachidonic acid) of 71% and an inhibition at 1000 µg/mL (platelet aggregation [2]; collagen 3.2 μg/mL, p<0.05, read-out: inhibition of platelet aggregation induced with collagen) of 60%.

B1: abciximab (antibody, chains of the INN, looked up, V domains shown)
VH: EVQLQQSGTVLARPGASVKMSCEASGYTFTNYWMHWVKQRPGQGLEWIGAIYPGNSDTSYIQKFKGKAKLTAVTSTTSVYMELSSLTNEDSAVYYCTLYDGYYVFAYWGQGTLVTVSA
VL: EIVLTQSPVTLSVTPGDSVSLSCRASRDISNNLHWFQQTSHESPRLLIKYASQSMSGIPSRFSGSGSGTDFTLSINSVETEDFGMYFCQQTNSWPYTFGGGTKLEIK
modifications: Fab
In the case of B1, the “platelet aggregation induced by collagen” value (platelet aggregation [3]) is reported as “significant reductions” and the “effect on thrombin generation” value (thrombin generation) is reported as “no effect”.
